# Data as given in patent publication EP3444615A1, “METHODS AND COMPOSITIONS FOR DIAGNOSTIC EVALUATION AND THERAPEUTIC CORRECTION OF THE NO-HAEM SIGNALLING PATHWAY(S) IN ANIMALS AND HUMANS” (Freiberg Instruments GmbH, priority 2017, dated 2019).
# Legend:
# mouse femoral artery = assay: isometric tension study, wire myograph, pre-contracted artery rings; conditions: Fig. 7
# Experimental: For the pilot experiment a male Swiss mouse (35 g) was sacrificed under ether anaesthesia. Femoral artery was isolated and cleaned from the adhering fat and connective tissue. Artery rings (2 mm) with endothelium were mounted in the organ chambers filled with Krebs solution continuously bubbled with 95% 02/ 5% CO2 at 37°C. The composition of the solution was as following: 119 mM NaCl, 4.7 mM KCI, 14.9 mM NaHCO3, 1.2 mM MgSO4.7H2O, 2.5 mM CaCl2, 1.18 mM KH2PO4, and 5.5 mM glucose; pH 7.4. Vascular reactivity was measured by the monitoring the changes in isometric tension using a wire myograph (Danish Myo Technology, Arhus, Denmark). After pre-contraction of arterial rings with 1µM 5-HT (serotonin; Sigma-Aldrich), the cumulative concentrations of NO-ferrohaem were added. In the end of experiment, an inhibitor of the soluble guanylate cyclase (ODQ; 1µM) was added.
# [1] = system: human platelet-rich plasma (PRP); assay: U46619-induced platelet aggregation in platelet-rich plasma (aggregometer); format: cell-based
# Experimental: Human venous blood was collected into a plastic polypropylene syringe containing sodium citrate. […] Platelet-rich-plasma (PRP) was prepared by centrifugation of the blood at 180g for 10 minutes at room temperature. The cloudy supernatant containing platelets was carefully removed with a pipette and transferred into a clean polypropylene tube and capped. Platelets were used for the experiments within 3 hr after blood collection. Platelet function studies were performed using a Dual Channel Aggregometer (Chronolog, Havertown). The PRP was adjusted to a platelet count of 200-300x 10^6/ml. Platelet aggregation was induced by the addition of a synthetic thromboxane A2 receptor agonist, U46619 (Cayman Chemical, Ann Arbor). PRP was placed in the aggregometer cuvette and continuously stirred at the rate of 1000 rpm. Platelet aggregation was determined by measuring the change in the optical density after addition of 1µM U46619. […]
# anesthetized Wistar rat = assay: blood pressure study, subcutaneous injection; format: in vivo; conditions: after injection of sGC inhibitor methylene blue; Fig. 8
# Experimental: For the pilot experiment, a male Wistar rat weighing 350g from Janvier Labs (Le Genest-Saint-Isle, France) was used. Rat was anaesthetised with isoflurane 1-2% (Baxter S.A.S, Maurepas, France) and analgesia was ensured by sufentanil (Mylan, Pittsburgh PA, USA) (0.1 µg/kg of body weight) administered subcutaneously. Animal was tracheotomised and lungs ventilated throughout the experiment. The ventilator (Harvard Rodent Ventilator 683, Harvard Instruments, South Natick, MA, USA) was set to maintain a PaCO2 of 40 mmHg and oxygen was added to maintain a PaO2 of 100 mmHg. The left femoral artery was used to measure mean arterial pressure (MAP) and heart rate (HR). The rectal temperature was continuously monitored. The NO-ferrohaem was injected at dose 2µmol/kg (s.c.) before and after the injection of methylene blue (1 µmol/kg; s.c.). In the end of experiment rat was euthanized using the lethal dose of Pentothal (100 mg/kg; i.v.).
# anesthetized rats = assay: blood pressure after intravenous bolus injection; format: in vivo; conditions: 10 nmol/kg
# [2] = system: isolated rat mesenteric arteries; assay: vasodilation in isolated mesenteric arteries
# isolated sGC = target: T1, isolated sGC (Bos taurus, UniProt P16068); conditions: bare ferrohaem, in contrast to NO-ferrohaem; cited from earlier work
# T1 construct: host or cells: bovine lung (from a cited title)
# T1 sequence (P16068 1-619): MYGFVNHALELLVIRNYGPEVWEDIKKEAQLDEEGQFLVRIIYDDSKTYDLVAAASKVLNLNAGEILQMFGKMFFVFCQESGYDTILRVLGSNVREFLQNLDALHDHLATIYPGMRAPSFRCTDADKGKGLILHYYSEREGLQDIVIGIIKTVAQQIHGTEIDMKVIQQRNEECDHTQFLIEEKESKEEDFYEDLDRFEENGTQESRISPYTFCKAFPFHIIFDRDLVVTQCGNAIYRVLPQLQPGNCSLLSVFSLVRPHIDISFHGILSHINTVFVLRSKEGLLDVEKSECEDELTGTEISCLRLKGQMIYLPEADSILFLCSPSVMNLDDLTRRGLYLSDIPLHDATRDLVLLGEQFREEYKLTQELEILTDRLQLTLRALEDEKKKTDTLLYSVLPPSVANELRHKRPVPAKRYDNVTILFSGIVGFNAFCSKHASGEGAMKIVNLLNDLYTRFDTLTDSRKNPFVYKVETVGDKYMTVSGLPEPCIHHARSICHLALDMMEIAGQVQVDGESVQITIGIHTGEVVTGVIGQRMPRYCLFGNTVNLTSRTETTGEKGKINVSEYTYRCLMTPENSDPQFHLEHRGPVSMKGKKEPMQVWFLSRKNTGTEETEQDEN
# T1 sequence (P19687 1-691 partner): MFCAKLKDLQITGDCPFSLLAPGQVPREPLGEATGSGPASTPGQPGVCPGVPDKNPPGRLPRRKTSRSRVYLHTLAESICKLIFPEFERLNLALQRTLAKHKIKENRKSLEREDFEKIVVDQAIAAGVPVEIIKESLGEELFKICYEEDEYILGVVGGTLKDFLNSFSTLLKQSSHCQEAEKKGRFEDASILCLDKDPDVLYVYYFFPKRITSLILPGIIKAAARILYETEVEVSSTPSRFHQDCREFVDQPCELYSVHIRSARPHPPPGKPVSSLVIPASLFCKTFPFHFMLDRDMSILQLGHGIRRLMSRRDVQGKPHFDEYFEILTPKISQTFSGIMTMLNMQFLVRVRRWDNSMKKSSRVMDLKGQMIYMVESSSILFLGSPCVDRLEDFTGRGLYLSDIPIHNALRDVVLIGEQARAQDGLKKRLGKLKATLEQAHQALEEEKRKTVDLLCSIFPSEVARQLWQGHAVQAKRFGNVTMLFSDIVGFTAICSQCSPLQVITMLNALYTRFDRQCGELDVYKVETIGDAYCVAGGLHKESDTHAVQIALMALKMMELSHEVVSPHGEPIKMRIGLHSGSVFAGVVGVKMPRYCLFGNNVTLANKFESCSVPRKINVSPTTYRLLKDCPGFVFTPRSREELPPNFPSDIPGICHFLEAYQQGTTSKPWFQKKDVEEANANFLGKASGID
SMILES,"relaxation of pre-contracted arteries (mouse femoral artery; 5-HT (1µM)-pre-contracted, 100nM-100µM concentration range)",effect of ODQ on the NO-ferrohaem-induced relaxation (mouse femoral artery; plus sGC inhibitor ODQ (1µM)),"U46619-induced platelet aggregation ([1]; 1 nM, 10nM or 100nM added 30 seconds before 1µM U46619, Fig. 6)","inhibition of thromboxane-induced platelet aggregation ([1]; at low nM concentrations, human platelet-rich plasma)",effect of methylene blue on hypotensive activity (anesthetized Wistar rat),blood pressure effect (anesthetized rats),vasodilating activity [2],effect on basal activity of isolated sGC (isolated sGC)
"C=Cc1c(C)c2[n]3c1C=C1N=C(C=C4N=C(C=c5c(C)c(C=C)c([n]5[Fe]3[N]=O)=C2)C(C)=C4CCC(=O)O)C(CCC(=O)O)=C1C [NO-ferrohaem, nitrosylated ferrous protoporphyrin IX]",concentration-dependent relaxation,completely reversed,concentration-dependently prevented the aggregation,efficiently inhibits,prevented this NO-ferrohaem activity,sGC-inhibitor-sensitive hypotension,direct long-lasting vasodilating activity,–
C=Cc1c(C)c2[n]3c1C=C1N=C(C=C4N=C(C=c5c(C)c(C=C)c([n]5[Fe]3)=C2)C(C)=C4CCC(=O)O)C(CCC(=O)O)=C1C [ferrohaem],–,–,–,–,–,–,–,inhibits the basal activity of isolated sGC
